This assay relates to oxotremorine-induced tremor in rats. The experiment in a line: Oxotremorine-induced tremor in rats. In kind it is in vivo, rat. Conditions: for Number of tremor behaviors: male SD rats, behaviors of at least 0.5 s in 2,048 s, mean±SEM. From the text:
As a model for assessing the potential efficacy of therapeutic agents that can effectively treat essential tremor and other tremor syndromes, oxotremorine-induced tremor in rats was used [B Cox, D Potkonjak, Effects of drugs on tremor and increase in brain acetylcholine produced by oxotremorine in the rat, Br. J. Pharmac., 1970, 38, 171-180].
Male SD rats (CrjBgi:CD(SD)IGS) were purchased from Orient Bio, Inc. of Korea, and placed in a wire mesh cage under conditions of ambient temperature of 20 to 24° C., 55 to 75% relative humidity, an automatically controlled light-and-darkness cycle of 12 hours and free access to feed (purchased from Agri Brands Purina Korea, Inc.) and water. The rats were housed and maintained in accordance with the Laboratory Animal Care Standards of the Institutional Animal Care and Use Committee (IACUC). After about one week of stabilization, rats weighing 200 to 240 g were used in the experiment. The rats to be used for the experiment were fasted by removing the feed 16 hours before the experiment, and placed in a tremor measurement device (Tremor Monitor™, San Diego Instruments, CA) 3 hours before the experiment and adapted for 10 minutes.
The test compound was prepared by dissolving it in 30% polyethylene glycol 400 (purchased from Sigma) used as a vehicle 30-45 minutes before each experiment. The vehicle and the test compound (3, 10 and 30 mg/kg dose) were administered into the oral cavity, respectively, in a volume of 4 ml per 1 kg body weight of the rat. After 60 minutes, oxotremorine (oxotremorine sesquifumarate salt, 1-(4-[1-Pyrrolidinyl]-2-butynyl)-2-pyrrolidinone sesquifumarate; purchased from Sigma) dissolved in saline and prepared in a volume of […] or a saline were subcutaneously injected into the back of the rat neck in a volume of 2 ml per 1 kg body weight of the rat. Oxotremorine-administered rats were immediately placed in a tremor measurement device (filter frequency 12 Hz, band-width 6 Hz, filter number 2), and the number of tremor behaviors that progressed for at least 0.5 seconds in 2,048 seconds were automatically measured and recorded. The number of rats per group was 16.
All data were expressed as mean±SEM. The number of oxotremorine-induced tremor behaviors in the group treated with the test compound was expressed as % inhibition compared to the vehicle group. Statistical analysis of the number of tremor behaviors between groups was performed using one-way ANOVA (one-way analysis of variance) and Dunnett's multiple comparison test by using the GraphPad Prism ver. 4.0 program. The mean number of tremor behaviors in the vehicle/oxotremorine group was observed as 29.8±8.1, and the mean number of tremor behaviors in the vehicle/saline group was observed as 9.2±2.5.

Marks after values point to notes of the source that are not given here.

Broadly, the ED50 is the dose that gives a 50% effect, or the effect in half of the subjects. The term inhibition denotes the relative decrease from the control value, in per cent. For the molecule `NC(=O)O[C@@H](Cn1ncnn1)c1ccccc1Cl` [Test compound], the ED50 (Rattus norvegicus, po, rats, inhibition of oxotremorine-induced tremor behaviors, read-out: Calculated Median Effective Dose (ED50)) is 1.67 mg/kg. The inhibition at 3 mg/kg (Rattus norvegicus, po, 3 mg/kg p.o., rats, vs vehicle/oxotremorine group, corrected for vehicle/saline group, read-out: Inhibition rate compared to negative group) came to 50.3%. Moreover, the inhibition at 10 mg/kg (Rattus norvegicus, po, 10 mg/kg p.o., rats, vs vehicle/oxotremorine group, corrected for vehicle/saline group, read-out: Inhibition rate compared to negative group) came to 78.7%. Moreover, for the setting “Rattus norvegicus, po, 30 mg/kg p.o., rats, vs vehicle/oxotremorine group, corrected for vehicle/saline group, read-out: Inhibition rate compared to negative group”, the inhibition at 30 mg/kg was determined as 130%. Further, the “Number of tremor behaviors” value runs as follows: (3 mg/kg p.o. 60 min before oxotremorine s.c.) 19.4 ± 3.7; (10 mg/kg p.o. 60 min before oxotremorine s.c.) 13.6 ± 0.1^2); (30 mg/kg p.o. 60 min before oxotremorine s.c.) 2.9 ± 0.5^1). Moreover, the “Pharmacological activity in the oxotremorine-induced tremor behavior model” value (rats, 3, 10 and 30 mg/kg p.o.) is “significant pharmacological activity”.

Source of the values: US11033531B2, “Use of carbamate compound for preventing, alleviating, or treating tremors or tremor syndrome” (SK BIOPHARMACEUTICALS CO., LTD., priority 2016, dated 2021).
